According to patent US20060116390A1, “Hepatitis c virus inhibitors” (priority 2003, published 2006):
Like-named read-outs stand apart in the source and are kept apart here.

Tested on: HCV proteins in Rep5.1 cells (replicon cell line)
Assay: Inhibitory activity of HCV: cell-based ELISA in replicon cell line Rep5.1 (decrease of HCV proteins)
Design: species or system hepatitis C virus
Settings: Rep5.1 cells, 72 hours with drug
How it was run: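 HCV protein loss was quantified by ELISA on methanol/acetone-fixed cells 72 h after drug addition, probing with selected HCV-positive human plasma, and IC50 was defined as 50% reduction relative to untreated wells. The cells were Rep5.1 replicon cells cultured in DMEM-10 with 500 μg/ml G418, plated at 5000 per well and dosed with serial dilutions after 4 h attachment.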

[1] = Hepatitis C virus, 72 h, concentration at which 50% of HCV proteins was decreased, Table 2, read-out: IC50
[2] = Hepatitis C virus, 72 h, decrease of HCV proteins measured by HCV antibody, Table 1, read-out: Level (IC50 values classified)

Compound | IC50 [1] | IC50 [2] | IC50 (concentration at which 50% of HCV proteins was decreased, Table 2, read-out: IC50)
COc1cc(COC(=O)C2=C(C)NC(=S)NC2)cc(OC)c1 [Compound 81, 6-methyl-2-thioxo-1,2,3,4-tetrahydro-pyrimidine-5-carboxylic acid 3,5-dimethoxy-benzyl ester] | 3000 nM | 1000 to 10000 nM | –
CC1=C(C(=O)OCc2ccc(OCc3ccccc3)cc2)CNC(=S)N1 [Compound 49, 6-methyl-2-thioxo-1,2,3,4-tetrahydro-pyrimidine-5-carboxylic acid 4-benzyloxy-benzyl ester] | < 500 nM | < 1000 nM | –
COc1ccc(C2(COC(=O)C3=C(C)NC(=S)NC3CF)CC2)cc1 (stereo not drawn) [66′, 4-fluoromethyl-6-methyl-2-thioxo-1,2,3,4-tetrahydro-pyrimidine-5-carboxylic acid 1-(4-methoxy-phenyl)-cyclopropylmethyl ester] | 8000 nM | 1000 to 10000 nM | –
CC1=C(C(=O)OCCc2cccs2)CNC(=S)N1 [Compound 206, 6-methyl-2-thioxo-1,2,3,4-tetrahydro-pyrimidine-5-carboxylic acid 2-thiophen-2-yl-ethyl ester] | 600 nM | < 1000 nM | –
CC1=C(C(=O)OCc2ccccc2Cl)CNC(=S)N1 [Compound 84, 6-methyl-2-thioxo-1,2,3,4-tetrahydro-pyrimidine-5-carboxylic acid 2-chloro-benzyl ester] | < 400 nM | < 1000 nM | –
CC1=C(C(=O)OCc2cc(F)cc(F)c2)C(CO)NC(=S)N1 (stereo not drawn) [71″, 4-hydroxymethyl-6-methyl-2-thioxo-1,2,3,4-tetrahydro-pyrimidine-5-carboxylic acid 3,5-difluoro-benzyl ester] | > 100000 nM | > 20000 nM | –
CC1=C(C(=O)OCCc2ccc(C)c(F)c2)C(CO)NC(=S)N1 (stereo not drawn) [55″, 4-hydroxymethyl-6-methyl-2-thioxo-1,2,3,4-tetrahydro-pyrimidine-5-carboxylic acid 2-(3-fluoro-4-methyl-phenyl)-ethyl ester] | 500 nM | < 1000 nM | –
CC1=C(C(=O)OCC2CCCO2)CNC(=S)N1 (stereo not drawn) [Compound 161, 6-methyl-2-thioxo-1,2,3,4-tetrahydro-pyrimidine-5-carboxylic acid tetrahydrofuran-2-ylmethyl ester] | > 100000 nM | > 20000 nM | –
CC1=C(C(=O)OCCc2ccc(F)cc2)CNC(=S)N1 [Compound 259, 6-methyl-2-thioxo-1,2,3,4-tetrahydro-pyrimidine-5-carboxylic acid 2-(4-fluoro-phenyl)-ethyl ester] | < 400 nM | < 1000 nM | –
CC1=C(C(=O)OCCS(=O)(=O)c2ccc(C)cc2)CNC(=S)N1 [Compound 201, 6-methyl-2-thioxo-1,2,3,4-tetrahydro-pyrimidine-5-carboxylic acid 2-(toluene-4-sulfonyl)-ethyl ester] | 13000 nM | 10000 to 20000 nM | –
CC1=C(C(=O)SCCc2ccccc2)C(CO)NC(=S)N1 (stereo not drawn) [62″, 4-hydroxymethyl-6-methyl-2-thioxo-1,2,3,4-tetrahydro-pyrimidine-5-carbothioic acid S-phenethyl ester] | > 100000 nM | > 20000 nM | –
CCCC1=C(C(=O)OCc2ccccc2)CNC(=S)N1 [Compound 25, 6-propyl-2-thioxo-1,2,3,4-tetrahydro-pyrimidine-5-carboxylic acid benzyl ester] | 2000 nM | 1000 to 10000 nM | –
CC1=C(C(=O)OCc2ccc(-c3ccccc3)cc2)C(CO)NC(=S)N1 (stereo not drawn) [28″, 4-hydroxymethyl-6-methyl-2-thioxo-1,2,3,4-tetrahydro-pyrimidine-5-carboxylic acid biphenyl-4-ylmethyl ester] | 1000 nM | < 1000 nM | –
C=C(Br)CCOC(=O)C1=C(C)NC(=S)NC1 [Compound 99, 6-methyl-2-thioxo-1,2,3,4-tetrahydro-pyrimidine-5-carboxylic acid 3-bromo-but-3-enyl ester] | 1800 nM | 1000 to 10000 nM | –
CC1=C(C(=O)OCCCc2cccs2)C(CO)NC(=S)N1 (stereo not drawn) [4″, 4-hydroxymethyl-6-methyl-2-thioxo-1,2,3,4-tetrahydro-pyrimidine-5-carboxylic acid 3-thiophen-2-yl-propyl ester] | 2500 nM | 1000 to 10000 nM | –
CC1=C(C(=O)OCCc2ccc(OCc3ccccc3)cc2)C(CO)NC(=S)N1 (stereo not drawn) [27″, 4-hydroxymethyl-6-methyl-2-thioxo-1,2,3,4-tetrahydro-pyrimidine-5-carboxylic acid 2-(4-benzyloxy-phenyl)-ethyl ester] | 400 nM | < 1000 nM | –
CC1=C(C(=O)OC2CCc3c(Cl)sc(Cl)c32)CNC(=S)N1 (stereo not drawn) [12′, 6-methyl-2-thioxo-1,2,3,4-tetrahydro-pyrimidine-5-carboxylic acid 1,3-dichloro-5,6-dihydro-4H-cyclopenta[c]thiophen-4-yl ester] | < 400 nM | < 1000 nM | –
CC1=C(C(=O)OCCOC2CCc3ccccc32)CNC(=S)N1 (stereo not drawn) [Compound 125, 6-methyl-2-thioxo-1,2,3,4-tetrahydro-pyrimidine-5-carboxylic acid 2-(indan-1-yloxy)-ethyl ester] | 2000 nM | 1000 to 10000 nM | –
CC1=C(C(=O)OCc2ccc3c(c2)OCO3)CNC(=S)N1 [Compound 9, 6-methyl-2-thioxo-1,2,3,4-tetrahydro-pyrimidine-5-carboxylic acid benzo[1,3]dioxol-5-ylmethyl ester] | 4000 nM | 1000 to 10000 nM | –
CC1=C(C(=O)OCc2cc(C)on2)CNC(=S)N1 [47′, 6-methyl-2-thioxo-1,2,3,4-tetrahydro-pyrimidine-5-carboxylic acid 5-methyl-isoxazol-3-ylmethyl ester] | 100000 nM | > 20000 nM | –
CC1=C(C(=O)OCCc2ccccc2F)CNC(=S)N1 [Compound 116, 6-methyl-2-thioxo-1,2,3,4-tetrahydro-pyrimidine-5-carboxylic acid 2-(2-fluoro-phenyl)-ethyl ester] | 500 nM | < 1000 nM | –
CCCN(CCC)c1ccc(CCOC(=O)C2=C(C)NC(=S)NC2CO)cc1[N+](=O)[O-] (stereo not drawn) [93″, 4-Hydroxymethyl-6-methyl-2-thioxo-1,2,3,4-tetrahydro-pyrimidine-5-carboxylic acid 2-(4-dipropylamino-3-nitro-phenyl)-ethyl ester] | 500 nM | < 1000 nM | –
CSc1ccccc1COC(=O)C1=C(C)NC(=S)NC1 [Compound 110, 6-methyl-2-thioxo-1,2,3,4-tetrahydro-pyrimidine-5-carboxylic acid 2-methylsulfanyl-benzyl ester] | 17000 nM | 1000 to 10000 nM | –
C#CCOC(=O)C1=C(C)NC(=S)NC1 [Compound 159, 6-methyl-2-thioxo-1,2,3,4-tetrahydro-pyrimidine-5-carboxylic acid prop-2-inyl ester] | – | – | > 100000 nM
CC1=C(C(=O)OCc2cc(Cl)cc(Cl)c2)CNC(=S)N1 [Compound 131, 6-methyl-2-thioxo-1,2,3,4-tetrahydro-pyrimidine-5-carboxylic acid 3,5-dichloro-benzyl ester] | < 400 nM | < 1000 nM | –
CC1=C(C(=O)OCCSc2nc3ccccc3o2)C(CF)NC(=S)N1 (stereo not drawn) [46′, 4-fluoromethyl-6-methyl-2-thioxo-1,2,3,4-tetrahydro-pyrimidine-5-carboxylic acid 2-(benzoxazol-2-ylsulfanyl)-ethyl ester] | 6000 nM | 1000 to 10000 nM | –
